Source: ChEMBL document CHEMBL1201862, “PubChem BioAssay data set” (2004)
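Where inhibition never reached the appropriate level, the endpoint shown equals the highest concentration tested. Otherwise, values were interpolated linearly from a five-concentration, 48-hour dose response in 96-well plates. GI50 is the concentration that inhibits growth by half.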 The source made the active and inactive calls. No stated cut-off is given here; in the data, active = GI50 up to about 1.1 µM and inactive = higher.

Columns and labels:
Assay in all cases: NCI anticancer screen, dose series, 48 h
[1] = system: EKVX
[2] = system: HOP-62
[3] = system: TK-10
[4] = system: OVCAR-8
[5] = system: LOX IMVI
[6] = system: SNB-75
[7] = system: SNB-78
[8] = system: SW-620
[9] = system: HCT-116
[10] = system: M14
[11] = system: OVCAR-5
[12] = system: SK-MEL-28
[13] = system: HT-29
[14] = system: A549
[15] = system: SR
[16] = system: UACC-62
[17] = system: SF-539
[18] = system: ACHN
[19] = system: KM12
[20] = system: NCI-H522
[21] = system: SF-268
[22] = system: SK-MEL-2
[23] = system: MOLT-4
[24] = system: DMS-273
[25] = system: RXF 393
[26] = system: M19-MEL
[27] = system: SK-MEL-5
[28] = system: HL-60
[29] = system: NCI-H460
[30] = system: CCRF-CEM
[31] = system: UO-31
[32] = system: K562
[33] = system: LXFL 529
[34] = system: 786-0
[35] = system: XF498
[36] = system: NCI-H23
[37] = system: U-251
[38] = system: OVCAR-3
[39] = system: IGROV-1
[40] = system: SF-295
[41] = system: OVCAR-4
[42] = system: HCC 2998
[43] = system: HCT-15
[44] = system: SNB-19
[45] = system: RPMI-8226
[46] = system: SN12C
[47] = system: DMS-114
[48] = system: KM-20L2
[49] = system: Malme-3M
[50] = system: COLO 205
[51] = system: HOP-18
[52] = system: CAKI-1
[53] = system: DLD-1
[54] = system: UACC-257
[55] = system: NCI-H226
[56] = system: A498
[57] = system: SK-OV-3
[58] = system: HOP-92
[59] = system: PC-3
[60] = system: DU-145
[61] = system: T47D
[62] = system: NCI/ADR-RES
[63] = system: Hs-578T
[64] = system: BT-549

Measured: GI50

O=C1CCC(=O)N1Cc1ccccc1/N=[N+](\[O-])c1ccccc1CN1C(=O)CCC1=O
> 100 µM: [43]
inactive: [1] > 100 µM | [2] > 100 µM | [3] > 100 µM | [4] > 100 µM | [5] > 100 µM | [6] 10.2 µM | [7] > 100 µM | [8] > 100 µM | [9] > 100 µM | [10] > 100 µM | [11] > 100 µM | [12] > 100 µM | [13] > 100 µM | [14] > 100 µM | [15] > 100 µM | [16] > 100 µM | [17] > 100 µM | [18] > 100 µM | [19] > 100 µM | [20] > 100 µM | [21] > 100 µM | [22] > 100 µM | [23] > 100 µM | [24] > 100 µM | [25] > 100 µM | [26] > 100 µM | [27] > 100 µM | [28] > 100 µM | [29] > 100 µM | [30] > 100 µM | [31] > 100 µM | [32] > 100 µM | [33] > 100 µM | [34] > 100 µM | [35] > 100 µM | [36] > 100 µM | [37] > 100 µM | [38] > 100 µM | [39] > 100 µM | [40] > 100 µM | [41] > 100 µM | [42] > 100 µM | [44] > 100 µM | [45] > 100 µM | [46] > 100 µM | [47] > 100 µM | [48] > 100 µM | [49] > 100 µM | [50] > 100 µM

COc1cccc(NC(=O)CSc2nnc(Cc3ccccc3)o2)c1
> 100 µM: [43]
inactive: [2] > 100 µM | [3] > 100 µM | [4] > 100 µM | [5] > 100 µM | [6] 51.8 µM | [7] > 100 µM | [8] > 100 µM | [9] > 100 µM | [10] > 100 µM | [11] > 100 µM | [12] > 100 µM | [13] > 100 µM | [14] > 100 µM | [16] > 100 µM | [17] > 100 µM | [51] > 100 µM | [18] 23.3 µM | [19] > 100 µM | [20] > 100 µM | [21] > 100 µM | [22] > 100 µM | [23] > 100 µM | [24] > 100 µM | [25] > 100 µM | [26] > 100 µM | [27] 57 µM | [28] 54.3 µM | [29] > 100 µM | [52] > 100 µM | [53] > 100 µM | [54] > 100 µM | [30] > 100 µM | [31] > 100 µM | [32] > 100 µM | [33] > 100 µM | [34] > 100 µM | [36] > 100 µM | [37] > 100 µM | [55] > 100 µM | [38] > 100 µM | [39] > 100 µM | [40] > 100 µM | [41] > 100 µM | [42] > 100 µM | [56] > 100 µM | [57] > 100 µM | [44] > 100 µM | [45] > 100 µM | [46] > 100 µM | [47] > 100 µM | [48] > 100 µM | [49] > 100 µM | [50] > 100 µM

C=C1C2C[C@@H]3OC4CC5O[C@]6(CC5OC4C(C)C3OC(=O)CC3CC[C@@H]4OC5C7OC8C[C@](CCC9CC(=C)[C@H](CCC(C[C@H]1C)O2)O9)(OC7C4O3)O[C@@H]85)C[C@@H]1O[C@@]2(CC(C)[C@@H]3OC(CC(=O)CCO)C(O)C[C@@H]3O2)CC(C)[C@@H]1O6 (stereo partly specified)
< 0.001 µM: [43]
active: [2] < 0.001 µM | [4] < 0.001 µM | [5] < 0.001 µM | [7] 0.00157 µM | [8] < 0.001 µM | [9] < 0.001 µM | [10] < 0.001 µM | [11] < 0.001 µM | [58] < 0.001 µM | [14] < 0.001 µM | [15] < 0.001 µM | [16] < 0.001 µM | [17] < 0.001 µM | [18] < 0.001 µM | [19] < 0.001 µM | [20] < 0.001 µM | [21] < 0.001 µM | [22] < 0.001 µM | [23] < 0.001 µM | [24] < 0.001 µM | [27] < 0.001 µM | [29] < 0.001 µM | [52] < 0.001 µM | [53] < 0.001 µM | [54] < 0.001 µM | [30] < 0.001 µM | [31] < 0.001 µM | [32] < 0.001 µM | [33] < 0.001 µM | [34] < 0.001 µM | [35] < 0.001 µM | [36] < 0.001 µM | [37] < 0.001 µM | [55] < 0.001 µM | [38] < 0.001 µM | [39] < 0.001 µM | [40] < 0.001 µM | [41] < 0.001 µM | [42] < 0.001 µM | [57] < 0.001 µM | [44] < 0.001 µM | [46] < 0.001 µM | [48] < 0.001 µM | [49] < 0.001 µM | [50] < 0.001 µM

O=C(NC12CC3CC(CC(C3)C1)C2)C(=O)c1c[nH]c2ccccc12
12.1 µM: [43]
inactive: [1] 17.6 µM | [2] 19.1 µM | [3] 27 µM | [5] 13.1 µM | [6] > 10 µM | [7] 18 µM | [9] 14.7 µM | [10] 14 µM | [11] 17.9 µM | [12] 16.3 µM | [58] 15.1 µM | [13] 2.83 µM | [14] 16.3 µM | [15] 17.8 µM | [16] 13.4 µM | [17] 13.6 µM | [18] 15.5 µM | [19] 13.9 µM | [20] 16.3 µM | [21] 16.6 µM | [22] 17.9 µM | [23] 12.2 µM | [24] 14.8 µM | [26] 18.7 µM | [27] 15.4 µM | [28] 15.5 µM | [29] 12.1 µM | [54] 12.9 µM | [30] 16.4 µM | [31] 20 µM | [32] 5.77 µM | [33] 13.4 µM | [34] 13.1 µM | [35] 13.1 µM | [36] 14.7 µM | [37] 13.5 µM | [55] > 10 µM | [38] 17 µM | [39] 15.8 µM | [40] 10.2 µM | [41] 16.3 µM | [42] 14.8 µM | [57] 16 µM | [44] 17.9 µM | [45] 12.2 µM | [46] 16.5 µM | [47] 18 µM | [48] 5.94 µM | [49] 15 µM | [50] 18.7 µM

CCc1ccc(NCc2cc(OC)c(OC)c(OC)c2)cc1
0.164 µM: [43]
active: [59] 0.305 µM | [2] 0.532 µM | [9] 0.0998 µM | [13] 0.176 µM | [15] < 0.0282 µM | [19] 0.0738 µM | [20] 0.186 µM | [23] 0.29 µM | [60] 0.716 µM | [25] 0.211 µM | [26] 0.413 µM | [28] 0.056 µM | [53] 0.492 µM | [30] 0.284 µM | [32] 0.0845 µM | [35] 0.933 µM | [61] 0.302 µM | [36] 0.611 µM | [62] 0.0611 µM | [63] 0.261 µM | [38] 0.211 µM | [40] 0.197 µM | [64] < 0.01 µM | [44] 0.522 µM | [45] 0.367 µM | [47] 0.457 µM | [48] 0.267 µM | [49] 0.232 µM
inactive: [1] 4.2 µM | [11] 3.02 µM | [58] 1.24 µM | [18] 2.24 µM | [55] 3.3 µM | [41] 18.2 µM
